Results on 1 compound are retold here after patent US10022308B2, “Wipe and methods for improving skin health” (Kimberly-Clark Worldwide, Inc., priority 2003, dated 2018).

Molecules are shown by their SMILES.

Experiment [1] relates to P. mirabilis (ATCC #29906). Kind of experiment: Adhesion assay for P. mirabilis on synthetic skin substrate. The note with it: 50 μl of 10% botanical stock in TSB + 50 μl bacteria, 3 h room temperature, VITRO-SKIN, AlamarBlue; >100% more cells adhered than control. It counts as cell-based, Proteus mirabilis. The method, then:
(§1) The protocols for testing the ability of botanical compounds to elicit any of these desired effects are set forth in the Examples. In general, the ability of a botanical compound to affect the adherence of an organism to skin is determined by comparing the adherence of the organism to skin in the presence of the botanical compound, to the adherence of the organism to skin in the absence of the botanical compound. If the amount of adherence in the presence of the botanical compound is 150% or greater than the amount of adherence in the absence of the botanical compound, then the botanical compound is an adherence promoter for that organism. If the amount of adherence in the presence of the botanical compound is 50% or less than the amount of adherence in the absence of the botanical compound, then the botanical compound is an anti-adherent for that organism.
(§2) Each of the botanical compounds listed in Table 1 was screened to measure the effect of the compound on the adhesion of P. mirabilis, S. epidermidis, or P. aeruginosa to the skin. […]
(§3) The next day, the optical density (650 nm) of the TSB culture was read. […] AlamarBlue® levels were read (emission levels read at 590 nm) in an Ascent plate reader (excitation level of 544 nm) at 1 and 2 hours. When not being read, the plate was incubated at 37° C. with a lid. […]
In general terms: Alamar Blue is a resazurin reagent that responds to reducing activity.

For experiment [2], the system named is P. aeruginosa (ATCC #27853). Kind of experiment: Adhesion assay for P. aeruginosa on synthetic skin substrate. It counts as cell-based, Pseudomonas aeruginosa. The note with it: 50 μl of 10% botanical stock in TSB + 50 μl bacteria, 3 h room temperature, VITRO-SKIN, AlamarBlue. The method, then:
as §1, §2, §3

Experiment [3] has as its system S. epidermidis (ATCC #12228). The experiment can be described thus: Adhesion assay for S. epidermidis on synthetic skin substrate. It counts as cell-based, Staphylococcus epidermidis. The note with it: 50 μl of 10% botanical stock in TSB + 50 μl bacteria, 3 h room temperature, VITRO-SKIN, AlamarBlue. The method, then: as §1, §2, §3
Experiment [4] relates to C. albicans (ATCC #10231). The experiment can be described thus: Adhesion assay for Candida albicans on synthetic skin substrate. To be noted: 50 μl of 10% botanical stock in TSB + 50 μl yeast, 3 h at 33° C., VITRO-SKIN, AlamarBlue. It counts as cell-based. The method, then:
as §1
(§4) Results are given in Table 1, which gives the percent adherence to the skin of P. mirabilis, S. epidermidis, P. aeruginosa, L. acidophilus, and C. albicans for the various botanical compound samples, relative to the control. The percentage is based on the number of cells that adhered to the skin for the botanical samples as compared to the number of cells that adhered to the skin in the control, as determined by the AlamarBlue® levels. […]
The next day, the optical density (650 nm) of the SDB culture was read. […]

Experiment [5] deals with Lactobacillus acidophilus (ATCC #:314). Kind of experiment: Adhesion assay for Lactobacillus acidophilus on synthetic skin substrate. It counts as cell-based. The note with it: 50 μl of 10% botanical stock in TSB + 50 μl bacteria, 3 h at 33° C. or 37° C., VITRO-SKIN, AlamarBlue. The method, then:
as §1, with “If the amount of adherence in the presence of the botanical compound is 50% or less than the amount of adherence in the absence of the botanical compound, then the botanical compound is an anti-adherent for that organism.” left out
as §4
The next day, the optical density (650 nm) of the Lactobacilli broth culture was read. […] AlamarBlue® levels were read (emission levels read at 590 nm) in an Ascent plate reader (excitation level of 544 nm) at 2 and 3 hours. […]

Regarding `CCCC(O)CO` (centres unmarked) [Hydrolite-5], the “percent adherence to the skin of P. mirabilis (PM) relative to the control” value in experiment [1] was found to be 9.2%. Besides, in experiment [2], the “percent adherence to the skin of P. aeruginosa (PA) relative to the control” value is recorded as 5.1%. Moreover, the “percent adherence to the skin of S. epidermidis (SE) relative to the control” value in experiment [3] is recorded as 141.5%. Also, the “percent adherence to the skin of C. albicans (CA) relative to the control” value in experiment [4] is 3.9%. Besides, the “percent adherence to the skin of L. acidophilus (LA) relative to the control” value in experiment [5] was found to be 169.66%.
